{"source": "patent EP0080940B1", "about": "“Derivatives of 2-phenyl-morpholine and medical compositions” (LABORATOIRE L. LAFON Société anonyme dite:, priority 1981, dated 1983)", "key": {"souris [1]": {"test_system": "souris", "assay": "Motility reduced by habituation to the enclosure", "type": "in vivo", "details": "64 mg/kg i.p.", "description": "Après 18 h de séjour dans les actimètres, les souris (6 par dose, 12 témoins) reçoivent le CRL 40914. Elles sont aussitôt replacées dans leurs enceintes respectives et, une demi-heure plus tard, on enregistre leur motilité pendant 30 min.\n(§1) On a résumé ci-après les résultats des essais qui ont été entrepris chez l'animal avec le CRL 40915, les modalités opératoires étant celles données ci-dessus pour le CR L 40914."}, "souris [2]": {"test_system": "souris", "assay": "Motility reduced by hypoxic aggression", "type": "in vivo", "details": "i.p., anoxie hypobare aiguë", "description": "Une demi-heure après avoir reçu le CRL 40914, les souris (10 par dose, 20 témoins) sont soumises à une anoxie hypobare aiguë [dépression de 600 mm Hg (soit environ 8 x10^4 pascals) en 90 s puis détente de 45 s] puis elles sont placées en actimètre où leur motilité est enregistrée pendant 10min.\nas §1"}, "[3]": {"test_system": "rats génétiquement hypertendus", "assay": "Action on the cardiovascular system", "type": "in vivo, rat", "details": "20 mg/kg par voie buccale", "description": "Six rats génétiquement hypertendus à cathéter artériel fémoral implanté reçoivent le CRL 40914 à la dose de 20 mg/kg par voie buccale."}, "souris [4]": {"test_system": "souris", "assay": "Interaction with apomorphine, mouse", "type": "in vivo", "details": "16 mg/kg et 64 mg/kg i.p., une demi-heure avant apomorphine s.c. 1 ou 16 mg/kg", "description": "Des lots de 6 souris reçoivent le CRL 40914 une demi-heure avant l'injection sous-cutanée d'apomorphine, à la dose de 1 mg/kg ou 16 mg/kg.\nas §1"}, "souris [5]": {"test_system": "souris", "assay": "Action on rectal temperature", "type": "in vivo", "description": "On a résumé ci-après les résultats des essais qui ont été entrepris chez l'animal avec le CRL 40914, ce produit étant administré, sauf indications contraires, en solution dans l'eau (à pH 5) par voie intrapéritonéale sous un volume de 20 ml/kg chez la souris mâle et de 5 ml/kg chez le rat mâle.\nDes lots de 6 souris reçoivent le CRL 40914; la température rectale est notée toutes les 30 min."}, "rats": {"test_system": "rats", "assay": "Interaction with apomorphine, rat", "type": "in vivo", "details": "apomorphine 0,5 mg/kg s.c.", "description": "Le CRL 40914 est administré aux rats une demi-heure avant l'injection sous-cutanée de 0,5 mg/kg d'apomorphine.\nas §1"}, "[6]": {"details": "souris, 0,25 mg/kg, 1 mg/kg, 4 mg/kg et 16 mg/kg i.p."}}, "data": [{"smiles": "CCN1CCOC(c2ccccc2)C1", "note": "(stereo not drawn) [CRL 40914, Chlorhydratede 2-phényl-4-éthyl-morpholine]", "values": [{"measurement": "activité motrice chez la souris habituée à son enceinte", "setting": "souris [1]", "value": "reprise très nette de l'activité motrice"}, {"measurement": "activité motrice après agression hypoxique", "setting": "souris [2]", "value": "modifications de l'activité motrice qui reflètent son action sur la motilité spontanée"}, {"measurement": "effet sur la pression artérielle", "setting": "[3]", "value": "modérément hypotenseur"}, {"measurement": "temps de l'effet maximal sur la pression artérielle", "setting": "[3]", "value": 7, "unit": "h"}, {"measurement": "variation de la pression artérielle", "setting": "[3]; 7 h après", "value": -18, "unit": "%"}, {"measurement": "pression artérielle (effet maximal)", "setting": "[3]; 7 h après, valeur initiale 165", "value": 135, "unit": "mm Hg"}, {"measurement": "pression artérielle et fréquence cardiaque après 24 h", "setting": "[3]; 24 h", "value": "sont revenues à leur valeur témoin"}, {"measurement": "fréquence cardiaque (minimum)", "setting": "[3]; après 1,5 h, valeur initiale 350", "value": 270, "unit": "battements/minute"}, {"measurement": "action hypothermisante de l'apomorphine", "setting": "souris [4]", "value": "s'oppose à l'action hypothermisante de l'apomorphine"}, {"measurement": "indices de verticalisation et de stéréotypies (apomorphine)", "setting": "souris [4]", "value": "semble augmenter les indices de verticalisation et de stéréotypies"}, {"measurement": "durée de l'hypothermie", "setting": "souris [5]; [6]", "value": "90 à 120 min"}, {"measurement": "température rectale", "setting": "souris [5]; [6]", "value": "hypothermie maximale après 30 min"}, {"measurement": "température rectale", "setting": "souris [5]; souris, 64 mg/kg i.p.", "value": "hyperthermie qui apparaît à 30 min et qui fait ensuite place à une hypothermie modérée"}, {"measurement": "stéréotypies induites par l'apomorphine", "setting": "rats; rat, 0,5 mg/kg, 2 mg/kg et 8 mg/kg i.p.", "value": "semble diminuer modérément l'intensité des téréotypies induites par l'apomorphine"}, {"measurement": "stéréotypies induites par l'apomorphine", "setting": "rats; rat, 32 mg/kg i.p.", "value": "potentialisation discrète des stéréotypies"}]}]}
